Test results reported in patent US20250011288A1 (BRISTOL-MYERS SQUIBB COMPANY, priority 2021, published 2025).

target: T1, human RXFP1 (Homo sapiens, UniProt Q9HBX9); assay: human RXFP1 (hRXFP1) HEK293 cAMP assay (HTRF); assay type: cell-based; details: HEK293 cells stably expressing human RXFP1, 30 min at room temperature
T1 construct: expressed in transfected cells
T1 sequence (Q9HBX9 1-757): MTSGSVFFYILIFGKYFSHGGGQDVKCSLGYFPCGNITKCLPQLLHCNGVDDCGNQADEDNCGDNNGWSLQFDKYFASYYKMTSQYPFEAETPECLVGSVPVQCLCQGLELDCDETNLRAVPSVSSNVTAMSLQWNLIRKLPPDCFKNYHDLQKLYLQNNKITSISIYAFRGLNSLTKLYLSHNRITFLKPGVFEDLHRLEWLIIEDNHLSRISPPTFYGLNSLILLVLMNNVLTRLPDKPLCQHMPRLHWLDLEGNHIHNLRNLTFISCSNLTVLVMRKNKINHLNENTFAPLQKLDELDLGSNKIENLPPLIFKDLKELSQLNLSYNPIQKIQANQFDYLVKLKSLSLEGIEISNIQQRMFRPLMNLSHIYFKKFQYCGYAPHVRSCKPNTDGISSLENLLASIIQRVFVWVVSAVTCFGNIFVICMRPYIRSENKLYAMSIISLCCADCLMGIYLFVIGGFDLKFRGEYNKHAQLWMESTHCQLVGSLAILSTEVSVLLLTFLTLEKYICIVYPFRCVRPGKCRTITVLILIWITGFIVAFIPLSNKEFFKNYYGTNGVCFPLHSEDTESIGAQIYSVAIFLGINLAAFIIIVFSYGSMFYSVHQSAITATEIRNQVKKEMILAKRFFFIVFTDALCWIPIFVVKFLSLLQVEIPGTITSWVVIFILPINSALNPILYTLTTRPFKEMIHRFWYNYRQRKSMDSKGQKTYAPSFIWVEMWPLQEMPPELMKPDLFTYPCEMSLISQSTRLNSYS
Method in brief: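 Intracellular cAMP was quantified by HTRF after a 30 min room-temperature exposure of hRXFP1-HEK293 cells (1500/well) to compound at 0.010 nM–50 µM final, 2% DMSO. Buffer was HBSS with 20 mM HEPES, 0.05% BSA and 0.5 mM IBMX; values came from a 4-parameter logistic fit.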

In order of rising EC50:
1. COc1ncc(-c2cc([C@H](OC(=O)NC3CC3)C(F)(F)F)ccc2F)cc1C(=O)N[C@@H]1C2CCC(/C2=C/C2CCCC2)[C@@H]1C(=O)Nc1ccc(F)c(C(F)(F)F)c1 (stereo partly drawn) [Example 164, (1S)-1-[3-(5-{[(1R,2R,3S,4R, 7Z)-7-(cyclopentyl-methylidene)-3-{[4-fluoro-3-(trifluoromethyl)phenyl]carbamoyl}bicyclo[2.2.1]heptan-2-yl]carbamoyl}-6-methoxypyridin-3-yl)-4-fluorophenyl]-2,2,2-trifluoroethyl N-cyclopropylcar-bamate]  1.4 nM
2. COc1ncc(C2=NO[C@@H]3C[C@H](CO)CN23)cc1C(=O)N[C@@H]1C2CCC(/C2=C/C2CC2)[C@@H]1C(=O)N[C@H](C)C1(C)CC1 (stereo partly drawn) [Example 106, N-((1R,2R,3S,4R,Z)-7-(cyclopropyl-methylene)-3-(((R)-1-(1-methylcyclopropyl)ethyl)carbamoyl)bicyclo[2.2.1]heptan-2-yl)-5-((6S,7aR)-6-(hydroxymethyl)-5,6,7,7a-tetrahydropyrrolo [1,2-d][1,2,4]oxadiazo 1-3-yl)-2-methoxynicotinamide]  1.8 nM
3. COc1ncc(C2=NOC3CC(CO)CC23)cc1C(=O)N[C@H]1[C@@H](C(=O)N[C@H](C)C2(C)CC2)[C@H]2CC[C@@H]1/C2=C\C(F)(F)F (stereo partly drawn) [Example 115, 5-(5-(hydroxymethyl)-3a,5,6,6a-tetrahydro-4H-cyclopenta[d]isoxazol-3-yl)-2-methoxy-N-((1R,2R,3S,4R,Z)-3-(((R)-1-(1-methylcyclopropyl)ethyl)carbamoyl)-7-(2,2,2-trifluoroethylidene)bicyclo[2.2.1]heptan-2-yl)nicotinamide]  2.1 nM
4. COc1ncc(-c2cnc3n2CC(O)CC3)cc1C(=O)N[C@H]1[C@@H](C(=O)Nc2ccc(F)c(C(F)(F)F)c2)[C@H]2CC[C@@H]1/C2=C\C1CC1 (stereo partly drawn) [Example 103, N-((1R,2R,3S,4R,Z)-7-(cyclopropyl-methylene)-3-((4-fluoro-3-(trifluoromethyl)phenyl)carbamoyl)bicyclo[2.2.1]heptan-2-yl)-5-(6-hydroxy-5,6,7,8-tetrahydroimidazo [1,2-a]pyridin-3-yl)-2-methoxynicotinamide]  3.4 nM
5. CC(C)(C)CNC(=O)[C@@H]1[C@H](NC(=O)c2cc(C3=NOC4CC(CO)CC34)cc3c2OC(C)(C)C3)[C@@H]2CC[C@H]1/C2=C/C1CC1 (stereo partly drawn) [Example 146, N-[(1R,2R,3S, 4R,7Z)-7-(cyclopropyl-methylidene)-3-[(2,2-dimethylpropyl)carbamoyl]bicyclo [2.2.1]heptan-2-yl]-5-[5-(hydroxymethyl)-3aH,4H,5H,6H,6aH-cyclopenta[d][1,2]oxazol-3-yl]-2,2-dimethyl-2,3-dihydro-1-benzofuran-7-carboxamide]  3.5 nM
6. COc1ncc(C2=NOC3CC(C(O)C(F)(F)F)CC23)cc1C(=O)N[C@H]1[C@@H](C(=O)Nc2ccc(F)c(C(F)(F)F)c2)[C@H]2CC[C@@H]1/C2=C\C(C)C (stereo partly drawn) [Example 127, N-((1R,2R,3S,4R,Z)-3-((4-fluoro-3-(trifluoromethyl)phenyl)carbamoyl)-7-(2-methylpropylidene)bicyclo[2.2.1]heptan-2-yl)-2-methoxy-5-(5-(2,2,2-trifluoro-1-hydroxyethyl)-3a,5,6,6a-tetrahydro-4H-cyclopenta [d]isoxazol-3-yl)nicotinamide]  4.3 nM
7. CC1Cc2cc(C3=NOC4CC(O)CC34)cc(C(=O)N[C@@H]3C4CCC(/C4=C/C4CC4)[C@@H]3C(=O)Nc3ccc(F)c(C(F)(F)F)c3)c2O1 (stereo partly drawn) [Example 155, N-[(1R,2R,3S,4R, 7Z)-7-(cyclopropyl-methylidene)-3-{[4-fluoro-3-(trifluoromethyl)phenyl]carbamoyl}bicyclo[2.2.1]heptan-2-yl]-5-{5-hydroxy-3aH,4H,5H,6H, 6H-cyclopenta[d][1,2]oxazol-3-yl}-2-methyl-2,3-dihydro-1-benzofuran-7-carboxamide]  6.8 nM
8. COc1ncc(C2=NOC3CC(C(OC(=O)NC4CCC4)C(F)(F)F)CC23)cc1C(=O)N[C@@H]1C2CCC(/C2=C/C2CC2)[C@@H]1C(=O)Nc1ccc(F)c(C(F)(F)F)c1 (stereo partly drawn) [Example 171, 1-[3-(5-{[(2R,3S,7Z)-7-(cyclopropyl-methylidene)-3-{[4-fluoro-3-(trifluoromethyl)phenyl]carbamoyl}bicyclo[2.2.1]heptan-2-yl]carbamoyl}-6-methoxypyridin-3-yl)-3aH,4H,5H,6H, 6aH-cyclopenta[d][1,2]oxazol-5-yl]-2,2,2-trifluoroethyl N-cyclobutyl-carbamate]  7.9 nM
9. COc1cnc(C2=NOC3COCC23)cc1C(=O)N[C@H]1[C@@H](C(=O)Nc2ccc(F)c(C(F)(F)F)c2)[C@H]2CC[C@@H]1/C2=C\C1CC1 (single isomer, unassigned) [Example 71]  28 nM
10. COc1ncc(-c2cc(C(=O)O)ccc2F)nc1C(=O)N[C@H]1[C@@H](C(=O)Nc2ccc(F)c(C(F)(F)F)c2)[C@H]2CC[C@@H]1/C2=C\c1cnoc1 [Example 26, 4-fluoro-3-(6-(((1R,2R,3S,4R,Z)-3-((4-fluoro-3-(trifluoromethyl)phenyl)carbamoyl)-7-(isoxazol-4-ylmethylene)bicyclo[2.2.1]heptan-2-yl)carbamoyl)-5-methoxypyrazin-2-yl)benzoic acid]  76 nM
11. COc1cc2c(cc1C(=O)N[C@H]1[C@@H](C(=O)Nc3ccc(F)c(C(F)(F)F)c3)[C@H]3CC[C@@H]1/C3=C\C1CC1)CN(S(=O)(=O)CC(C)C)CC2 [Example 88, N-((1R,2R,3S,4R,Z)-7-(cyclopropylmethylene)-3-((4-fluoro-3-(trifluoromethyl)phenyl)carbamoyl)bicyclo[2.2.1]heptan-2-yl)-2-(isobutylsulfonyl)-6-methoxy-1,2,3,4-tetrahydroisoquinoline-7-carboxamide]  110 nM
12. O=C(N[C@@H]1C2CCC(/C2=C/C2CC2)[C@@H]1C(=O)Nc1ccc(F)c(C(F)(F)F)c1)c1cncc(C2=NOC3COCC23)c1 (single isomer, unassigned) [Example 63]  120 nM
13. COc1ncc(C2=NOC3CC(CO)CC23)cc1C(=O)N[C@@H]1C2CCC(/C2=C/C2CC2)[C@@H]1C(=O)Nc1ccc(F)c(C(F)(F)F)c1 (single isomer, unassigned) [Example 68]  130 nM
14. O=C(O)c1ccc(F)c(-c2cnc(OCCO)c(C(=O)N[C@@H]3C4CCC(/C4=C/C(F)(F)F)[C@@H]3C(=O)Nc3ccc(F)c(C(F)(F)F)c3)n2)c1 (stereo partly drawn) [Example 47, 4-Fluoro-3-(6-{[(2R,3S,7Z)-3-{[4-fluoro-3-(trifluoromethyl)phenyl]carbamoyl}-7-(2,2,2-trifluoroethylidene)bicyclo[2.2.1]heptan-2-yl]carbamoyl}-5-(2-hydroxyethoxy)pyrazin-2-yl)benzoic acid]  200 nM
15. COCCn1cc(OC)c(C(=O)N[C@@H]2C3CCC(/C3=C/C3CC3)[C@@H]2C(=O)Nc2ccc(F)c(C(F)(F)F)c2)n1 (some centres unmarked) [Example 79]  230 nM
16. CC(C)=C1C2CCC1[C@H](C(=O)Nc1ccc(F)c(C(F)(F)F)c1)[C@@H]2NC(=O)c1cc(C#N)ccn1 (stereo partly drawn) [Example 3, 4-cyano-N-[(2R,3S)-3-{[4-fluoro-3-(trifluoromethyl)phenyl]carbamoyl}-7-(propan-2-ylidene)bicyclo [2.2.1]heptan-2-yl]pyridine-2-carboxamide]  440 nM
17. COCCN1CCc2cc(OC)c(C(=O)N[C@H]3[C@@H](C(=O)Nc4ccc(F)c(C(F)(F)F)c4)[C@H]4CC[C@@H]3/C4=C\C3CC3)cc2C1 [Example 87, N-[(1R,2R,3S,4R)-7-(cyclopropyl-methylidene)-3-{[4-fluoro-3-(trifluoromethyl)phenyl]carbamoyl}bicyclo[2.2.1]heptan-2-yl]-6-methoxy-2-(2-methoxyethyl)-1,2,3,4-tetrahydro-isoquinoline-7-carboxamide]  630 nM
18. COc1ncc(Cl)cc1C(=O)N[C@@H]1C2CCC(/C2=C/C(F)(F)F)[C@@H]1C(=O)Nc1ccc(F)c(C(F)(F)F)c1 (stereo partly drawn) [Example 11, 5-chloro-N-[(2R,3S,7Z)-3-{[4-fluoro-3-(trifluoromethyl)phenyl]carbamoyl}-7-(2,2,2-trifluoroethylidcne)bicyclo[2. 2.1]heptan-2-yl]-2-methoxypyridine-3-carboxamide]  940 nM
19. Cn1c(=O)c(C(=O)N[C@@H]2C3CCC(/C3=C/C(F)(F)F)[C@@H]2C(=O)Nc2ccc(F)c(C(F)(F)F)c2)cc2ccccc21 (stereo partly drawn) [Example 15, N-[(2R,3S,7Z)-3-{[4-fluoro-3-(trifluoromethyl)phenyl]carbamoyl}-7-(2.2,2-trifluoroethylidene)bicyclo[2. 2.1]heptan-2-yl]-1-methyl-2-oxo-1,2-dihydroquinoline-3-carboxamide]  3500 nM
20. O=C(N[C@@H]1C2CCC(/C2=C/C(F)(F)F)[C@@H]1C(=O)Nc1ccc(F)c(C(F)(F)F)c1)c1cc(=O)c2ccccc2o1 (stereo partly drawn) [Example 16, N-[(2R,3S,7Z)-3-{[4-fluoro-3-(trifluoromethyl)phenyl]carbamoyl}-7-(2,2,2-trifluoroethylidene)bicyclo[2. 2.1]heptan-2-yl]-4-oxo-4H-chromene-2-carboxamide]  3800 nM
